According to EP0968222B1, “NOVEL ERYTHROMYCIN DERIVATIVES, METHOD OF PREPARATION AND APPLICATION AS MEDICINES” (Aventis Pharma S.A., priority 1997, dated 1998):
Values after ≈ are worked out from the molar mass of the structure shown.

Tests used:
Experiment in all cases: Liquid medium dilution method (MIC)
Assay type in all cases: cell-based
[1] = test system: Streptococcus pneumoniae 030PW23c; details: 24 h incubation at 37°C, read-out: concentrations minimales inhibitrices (C.M.I.)
Protocol: (§1) Méthode des dilutions en milieu liquide
(§2) On prépare une série de tubes dans lesquels on répartit une même quantité de milieu nutritif stérile. On distribue dans chaque tube des quantités croissantes du produit à étudier, puis chaque tube est ensemencé avec une souche bactérienne. Après incubation de vingt-quatre heures à l'étuve à 37°C, l'inhibition de la croissance est appréciée par transillumination, ce qui permet de déterminer les concentrations minimales inhibitrices (C.M.I.) exprimées en microgrammes/cm^3.

[2] = test system: Streptococcus pneumoniae 030GR20; details: 24 h incubation at 37°C, read-out: concentrations minimales inhibitrices (C.M.I.)
Protocol: as §1, §2

[3] = test system: Streptococcus pneumoniae 030RO1i; details: 24 h incubation at 37°C, read-out: concentrations minimales inhibitrices (C.M.I.)
Protocol: as §1, §2

[4] = test system: Streptococcus pneumoniae 032UC1; details: 24 h incubation at 37°C, read-out: concentrations minimales inhibitrices (C.M.I.)
Protocol: as §1, §2

[5] = test system: Streptococcus faecium groupe D 02D3HT1; details: Enterococcus faecium, 24 h incubation at 37°C, read-out: concentrations minimales inhibitrices (C.M.I.)
Protocol: as §1, §2

[6] = test system: Staphylococcus aureus 011UC4; details: 24 h incubation at 37°C, read-out: concentrations minimales inhibitrices (C.M.I.)
Protocol: as §1, §2

[7] = test system: Streptococcus agalactiae groupe B 02B1SJ1; details: 24 h incubation at 37°C, read-out: concentrations minimales inhibitrices (C.M.I.)
Protocol: as §1, §2

[8] = test system: Streptococcus pyogenes groupe A 02A1UC1; details: 24 h incubation at 37°C, read-out: concentrations minimales inhibitrices (C.M.I.)
Protocol: as §1, §2

Streptococcus sanguis = details: 24 h incubation at 37°C, read-out: concentrations minimales inhibitrices (C.M.I.)
Protocol: as §1, §2

[9] = test system: Streptococcus mitis 02mitCB1; details: 24 h incubation at 37°C, read-out: concentrations minimales inhibitrices (C.M.I.)
Protocol: as §1, §2

[10] = test system: Streptococcus faecalis groupe D 02D2UC1; details: Enterococcus faecalis, 24 h incubation at 37°C, read-out: concentrations minimales inhibitrices (C.M.I.)
Protocol: as §1, §2

[11] = test system: Streptococcus agalactiae groupe B 02B1HT1; details: 24 h incubation at 37°C, read-out: concentrations minimales inhibitrices (C.M.I.)
Protocol: as §1, §2

[12] = test system: Streptococcus pneumoniae 030SJ1c; details: 24 h incubation at 37°C, read-out: concentrations minimales inhibitrices (C.M.I.)
Protocol: as §1, §2

MIC [1]: 0.08 µg/mL (≈ 0.0894 µM)
MIC [2]: 0.04 µg/mL (≈ 0.0447 µM)
MIC [3]: 0.08 µg/mL (≈ 0.0894 µM)
MIC [4]: ≤ 0.02 µg/mL
MIC [5]: 0.08 µg/mL (≈ 0.0894 µM)
MIC [6]: 0.3 µg/mL (≈ 0.335 µM)
MIC [7]: 0.08 µg/mL (≈ 0.0894 µM)
MIC [8]: 0.08 µg/mL (≈ 0.0894 µM)
MIC (Streptococcus sanguis): 0.08 µg/mL (≈ 0.0894 µM)
MIC [9]: 0.04 µg/mL (≈ 0.0447 µM)
MIC [10]: 0.08 µg/mL (≈ 0.0894 µM)
MIC [11]: 0.08 µg/mL (≈ 0.0894 µM)
MIC [12]: 0.15 µg/mL (≈ 0.168 µM)
SMILES: CC[C@H]1OC(=O)[C@H](C)C(=O)[C@H](C)[C@@H](O[C@@H]2O[C@H](C)C[C@H](N(C)C)[C@H]2O)[C@](C)(OC)C[C@@H](C)/C(=N\OC2CCCNC2)[C@H](C)[C@H]2N(NCCCc3ccnc4ccccc34)C(=O)O[C@]12C (stereo partly shown) [Exemple 3]
